# In patent publication US20090131354A1, “miR-126 REGULATED GENES AND PATHWAYS AS TARGETS FOR THERAPEUTIC INTERVENTION” (priority 2007, published 2009):
# Key:
# [1] = test system: human PPC-1 prostate cancer xenograft; experiment: PPC-1 prostate cancer xenograft; type: in vivo, NOD/SCID mice; conditions: PPC-1 xenograft
# Experimental: Therefore, hsa-miR-126 is a likely to interfere with prostate tumor growth in the animal. To explore this possibility, the therapeutic potential of synthetic hsa-miR-126 miRNA was evaluated in the animal using the PPC-1 human prostate cancer xenograft. As described in Example 8, 5×10^6 PPC-1 cells per animal were electroporated with 1.6 μM synthetic hsa-miR-126 or negative control miRNA (Pre-miR™-hsa-miR-126, Ambion cat. no. AM17100; NC, Pre-miR™ microRNA Precursor Molecule-Negative Control #2, Ambion cat. no. AM17111), mixed with BD Matrigel™, (BD Biosciences; San Jose, Calif., USA; cat. no. 356237) in a 1:1 ratio and implanted subcutaneously into the lower back of NOD/SCID mice (Charles River Laboratories, Inc.; Wilmington, Mass., USA). A group of 7 mice was injected with hsa-miR-126 treated PPC-1 cells, and a group of 7 animals was injected with PPC-1 cells treated with negative control miRNA. To maintain steady levels of miRNA, 6.25 μg of each hsa-miR-126 or negative control miRNA conjugated with the lipid-based siPORT™ amine delivery agent (Ambion, Austin, Tex.; cat. no. AM4502) were repeatedly administered on days 7, 13 and 20 via intra-tumoral injections. Given an average mouse weight of 20 g, this dose equals 0.3125 mg/kg. Tumor growth was monitored by taking caliper measurements every 1-2 days for 22 days. Tumor volumes were calculated using the formula, Volume=length×width×width/2, in which the length is greater than the width, and plotted over time (FIG. 13). Standard deviations and data points with p values <0.01, indicating statistical significance, are shown in graph.
# [2] = test system: PPC-1 prostate cancer cells; experiment: Long-term growth curve with repeated electroporation, PPC-1; type: cell-based, human
# Description: To evaluate the therapeutic activity of hsa-miR-126 over an extended period of time, we conducted growth curve experiments in the presence of miRNA for up to 21 days. Since in vitro transfections of naked interfering RNAs, such as synthetic miRNA, are transient by nature and compromised by the dilution of the oligonucleotide during ongoing cell divisions, we administered miRNA at multiple time points (Bartlett and Davis, 2006; Bartlett and Davis, 2007). To accommodate miRNA delivery into a large quantity of cells, we employed the electroporation method to delivery hsa-miR-126 or negative control miRNA into PPC-1, PC3 and Du145 human prostate cancer cells. Briefly, 1×10^6 PPC-1 or PC3 cells, and 0.5×10^6 Du145 cells were electroporated with 1.6 μM hsa-miR-126 or negative control using the BioRad Gene Pulser Xcell™ instrument (BioRad Laboratories Inc., Hercules, Calif., USA), seeded and propagated in regular growth medium. Experiments with PC3 and Du145 cells were carried out in triplicates. When the control cells reached confluence (days 4 and 11 for PPC-1; days 7 and 14 for PC3 and Du145), cells were harvested, counted and electroporated again with the respective miRNAs. […] The population doubling was calculated from these electroporation events using the formula PD=ln(Nf/N0)/ln2, and cell counts were extrapolated and plotted on a linear scale (FIGS. 10-12). […]
# [3] = test system: human leukemia cells (Jurkat) and normal human T cells; conditions: cited from earlier work
# [4] = test system: lung cancer cells A549, H1299, H522, H838, Calu-3, HCC827, HCC2935, H520, H1650, H460, H226; experiment: Alamar Blue proliferation assay, all lung cancer cell lines tested; type: cell-based, human; conditions: 30 nM
# Description: The inventors assessed the therapeutic effect of hsa-miR-126 for lung cancer by using 11 individual lung cancer cell lines. To measure cellular proliferation of lung cancer cells, the following non-small cell lung cancer (NSCLC) cells were used: cells derived from lung adenocarcinoma (A549, H1299, H522, H838, Calu-3, HCC827, HCC2935), cells derived from lung squamous cell carcinoma (H520, H226), cells derived from lung bronchioalveolar carcinoma (H1650), and cells derived from lung large cell carcinoma (H460). Synthetic hsa-miR-126 (Pre-miR™-hsa-miR-126, Ambion cat. no. AM17100) or negative control (NC) miRNA (Pre-miR™ microRNA Precursor Molecule-Negative Control #2; Ambion cat. no. AM17111) was delivered via lipid-based transfection into A549, H1299, H522, H838, Calu-3, HCC827, HCC2935, H520, H1650, and H460 cells, and via electroporation into H226 cells.
# Lipid-based reverse transfections were carried out in triplicate according to a published protocol (Ovcharenko et al., 2005) and the following parameters: Cells (5,000-12,000 per 96 well), 0.1-0.2 μl Lipofectamine™ 2000 (cat. no. 11668-019, Invitrogen Corp., Carlsbad, Calif., USA) in 20 μl OptiMEM (Invitrogen), 30 nM final concentration of miRNA in 100 μl. […]
substance,measurement,setting,value
"hsa-miR-126 (UCGUACCGUGAGUAAUAAUGC; synthetic pre-miR form, further chemistry not given here) [Synthetic hsa-miR-126 (Pre-miR™-hsa-miR-126, Ambion cat. no. AM17100)]",average volume of tumors,"[1]; day 22, 6.25 μg intratumoral days 7, 13, 20",157 mm^3
same,tumor volumes after treatment,[1]; in response to treatments on days 7 and 13,approximately 130 mm^3
same,tumor growth,[1]; repeated dosing,blocked tumor growth
same,inhibition of cell growth,"[2]; PPC-1, day 18, 1.6 μM repeated electroporation, relative to control cells (100%)",91.3%
same,remaining cells,"[2]; PPC-1, day 18, relative to control cells (100%)",8.7%
same,effect on proliferation,[3],increasing the proliferation
same,average inhibition of cellular proliferation,[4]; average of 11 lung cancer cell lines,25.33%
same,growth-inhibitory activity compared with etoposide,[4]; lung cancer cell lines,comparable to that of etoposide at concentrations >10 μM
